Experimental data reported in patent US20230190787A1, “SYSTEM AND METHOD FOR TREATING CARDIAC TOXICITY VIA GUT MICROBIOTA” (priority 2022, published 2023).

What was measured:
Assay type in all cases: in vivo, Wistar albino rats
kidneys = assay: Histopathological analysis of kidney (H&E); conditions: DC group: Dox 1 mg/kg i.p., normal drinking water
Protocol: (§1) All the animals are randomly divided into 4 groups with six animals in each: 1) Normal control (NC), fed with standard semi purified diet along with normal drinking water, 2) Zam control (ZC) fed with standard semi purified diet along with Zam water p.o at libitum, 3) Doxorubicin or Dox control (DC), animals are injected with Dox (1 mg/kg bw) i.p. on first day of protocol fed with standard semi purified diet along with normal drinking water and 4) Dox+Zam (DZ) group injected with Dox (1 mg/kg bw) i.p. on first day of protocol, and treated with Zam water p.o at libitum, for 28 days. All the animals are on semi purified diet throughout the study period. Body weight of rats are recorded weekly and consumption of food and water is measured daily basis.
(§2) Physiological and behavioural changes are monitored in experimental rats for entire period of protocol. The protocol is terminated on 29th day, animals are sedated with diethyl ether for further process of organ harvesting and blood collection. Abdominal artery, punctured and blood is collected in centrifugal tubes approximately 3 ml/100 g body weight, allowed to clot at laboratory temperature for 30 minutes, centrifuged at 4° C. for 15 minutes at 4500 rpm. The supernatant serum, transferred to 1.5 ml tubes and kept at −80° C. for further analysis. […]

Gut microbiota = Gut microbiota analysis: 16S metagenomic analysis of stool DNA; conditions: DC group: Dox 1 mg/kg i.p., normal drinking water
Protocol: All the animals are randomly divided into 4 groups with six animals in each: 1) Normal control (NC), fed with standard semi purified diet along with normal drinking water, 2) Zam control (ZC) fed with standard semi purified diet along with Zam water p.o at libitum, 3) Doxorubicin or Dox control (DC), animals are injected with Dox (1 mg/kg bw) i.p. on first day of protocol fed with standard semi purified diet along with normal drinking water and 4) Dox+Zam (DZ) group injected with Dox (1 mg/kg bw) i.p. on first day of protocol, and treated with Zam water p.o at libitum, for 28 days. All the animals are on semi purified diet throughout the study period. Body weight of rats are recorded weekly and consumption of food and water is measured daily basis. Stool samples of rats are used to isolate the DNA by […] kit as per manufacturer's instructions. Briefly 250-300 mg of stool samples collected from lower intestine, in 2 ml tube weighted and thawed on ice. ASL buffer (1.5 ml) is added, vortexed for 3 minutes followed by incubation at 80° C. for 15 minutes. The incubated tubes are tapped every four minute and centrifuge at 14000 rpm for 15 minutes at room temperature. EX tablet is added to 1.5-2.0 ml of supernatant, followed by centrifugation for 5 minutes at 15000 rpm. The procedure continued with the addition of proteinase K (15 μl) and AL buffer, incubated for 10 minutes at 70° C. Approximately 300 μl of absolute alcohol or ethanol is added, centrifuged for 1 minute at 12000 rpm with addition of 500 μl of AW1 buffer to column above and centrifuge at 14000 rpm for 1 minute. The filtrate in collection tube is discarded, finally DNA is eluted and is evaluated on 1% agarose gel. The isolated sample of DNA is forwarded for 16S metagenomic analysis.

[1] = test system: Dox induced cardiac toxicity/remodeling; assay: Blood analysis: serum biochemical levels (auto analyzer/ELISA kits) in doxorubicin induced cardiac toxicity/remodelling rats
Excerpt: Zinc Quantification, rat high sensitivity C-Reactive Protein, Fibrinogen invitro, IL-6, IL-10, Renin, Ang II, and CKMB Enzyme linked Immunosorbent Assay (ELISA) rat kits are procured from Abcam, Cambridge, United Kingdom.
Sufficient experimental animals Wistar albino rats approximately average weight of 170±20 g are obtained. The protocol is approved by Institutional Animal Ethical Committee, all animals are acclimatized for 7 days standard laboratory condition of 12-hr light/dark cycle, maintained at temperature of 22±2° C. with relative humidity of 50±5% in department of Biochemistry, Faculty of Science.
as §1
Physiological and behavioural changes are monitored in experimental rats for entire period of protocol. The protocol is terminated on 29th day, animals are sedated with diethyl ether for further process of organ harvesting and blood collection. Abdominal artery, punctured and blood is collected in centrifugal tubes approximately 3 ml/100 g body weight, allowed to clot at laboratory temperature for 30 minutes, centrifuged at 4° C. for 15 minutes at 4500 rpm. The supernatant serum, transferred to 1.5 ml tubes and kept at −80° C. for further analysis. Harvested heart and kidneys are weight, preserved in 10% phosphate buffered formaldehyde for histopathological analysis.
The serum biochemical levels of Zinc, Fibrinogen, Renin, IL-10,11-6, CRP, Ang II, and CKMB are analyzed by standard auto analyzer kits-Zinc quantification kit, Rat Fibrinogen ELISA kit, Rat Renin ELISA kit, IL-10 ELISA kit, I1-6 ELISA kit, CRP ELISA kit, Ang II ELISA kit, and CKMB ELISA kit from Abcam Cambridge, United Kingdom.

heart = assay: Histopathological analysis of heart (H&E); conditions: DC group: Dox 1 mg/kg i.p., normal drinking water
Protocol: as §1, §2

[2] = DC group: Dox 1 mg/kg i.p., normal drinking water

## COc1cccc2c1C(=O)c1c(O)c3c(c(O)c1C2=O)C[C@@](O)(C(=O)CO)C[C@@H]3O[C@H]1C[C@H](N)[C@H](O)[C@H](C)O1 [Doxorubicin]
kidneys
  histopathology of kidneys: severe pathological lesions with tubular degeneration, tubular cast and tubular necrosis with eosinophilic infiltration
Gut microbiota
  Firmicutes population: 33%
  abundance of Bacteroidetes: 34%
  abundance of Muribaculaceae: 26%
  abundance of Proteobacteria: 17%
  abundance of Romboutsia: 2%
[1]; DC group: Dox 1 mg/kg bw i.p. day 1, normal drinking water
  Plasma CRP level: 13.40 ± 2.66 mg/dL
[1]; DC group: Dox 1 mg/kg bw i.p. day 1, normal drinking water, day 29
  serum Zinc level: 0.55 ± 0.12 µg/mL
[1]; [2]
  Ang II level: 16.00 ± 2.26 nmol/mL/min
  CKMB level: 121.8±3.12 U/L
  Fibrinogen concentration: 4.37±0.74
  IL-6: 3.36±1.32
  plasma renin level: 1.02 ± 0.38 ng/mL/h
[1]; DC group: Dox single dose 1 mg/kg body weight
  IL-10: 3.73 ± 0.50 pg/mL
heart
  histopathological evaluation of cardiac tissue: focal areas of myocardial cell degeneration with increased intracellular spaces, high fat deposits, inflammatory cell infiltration and disrupted tissue orientation
